Measured values reported in US9801901B2, “Alginate oligomers for use in overcoming multidrug resistance in bacteria” (priority 2009, dated 2017).
Converted amounts (≈) assume the structure as drawn. Where two headings read alike, the source gives them in different places. One block for each compound: values may come before it.

Tests used:
[1] = tested on: strains of Klebsiella pneumoniae displaying MDR phenotypes; test: MIC-assay, Mueller-Hinton broth with G-block alginate, 384-well, OD600 (Table 10); assay type: cell-based; conditions: read-out: MIC
From the text: Minimum inhibitory concentration (MICs) of different antibiotics for strains of Klebsiella pneumoniae displaying MDR phenotypes in the presence of varying concentrations of OligoCF-5/20 (0-10%). (MIC values are expressed in μg ml^−1).

MDR Providencia stuartii = test: MIC-assay, Mueller-Hinton broth with G-block alginate, 384-well, OD600 (Table 11); assay type: cell-based; conditions: Providencia stuartii (IR57 India, V7) MDR
From the text: (§1) Minimum inhibitory concentration (MICs) of different antibiotics for strains of E. coli and Providencia stuartii displaying MDR phenotypes in the presence of varying concentrations of OligoCF-5/20 (0-10%). (MIC values are expressed in μg ml^−1).

[2] = tested on: strains of E. coli displaying MDR phenotypes; test: as above; assay type: cell-based; conditions: Escherichia coli, Escherichia coli (5702, Wales, V11) MDR, read-out: MIC
From the text: as §1

[3] = tested on: Staphylococcus aureus (MRSA) U50; test: MIC-assay, Mueller-Hinton broth with G-block alginate, 384-well, OD600 (Table 12); assay type: cell-based; conditions: MRSA 1040s, U50 MDR, read-out: MIC
From the text: (§2) Minimum inhibitory concentration (MICs) of different antibiotics for strains of Streptococcus oralis and Staphylococcus aureus (MRSA) displaying MDR phenotypes in the presence of varying concentrations of OligoCF-5/20 (0-10%). (MIC values are expressed in μg ml^−1).

Streptococcus oralis = test: as above; assay type: cell-based; conditions: Streptococcus oralis (5610, V17) MDR, read-out: MIC
From the text: as §2

[4] = tested on: Pseudomonas aeruginosa (MDR 301, PSA, V2); test: MIC-assay, Mueller-Hinton broth with G-block alginate, 384-well, OD600
[5] = tested on: Pseudomonas aeruginosa (R22, PSA, V1); test: as above
[6] = tested on: Acinetobacter lwoffii (6056, V22); test: as above
[7] = tested on: Acinetobacter baumannii (Egypt, V9); test: as above
[8] = tested on: Acinetobacter lwoffii (Egypt, V10); test: as above
[9] = Klebsiella pneumoniae (5712, Wales, V12) MDR, G-block (OligoCF-5/20) 0%
[10] = Klebsiella pneumoniae (5712, Wales, V12) MDR, G-block (OligoCF-5/20) 2%
[11] = Klebsiella pneumoniae (5712, Wales, V12) MDR, G-block (OligoCF-5/20) 6%
[12] = Klebsiella pneumoniae (5712, Wales, V12) MDR, G-block (OligoCF-5/20) 10%
[13] = Klebsiella pneumoniae (IR25, India, V6) MDR, G-block (OligoCF-5/20) 0%
[14] = Klebsiella pneumoniae (IR25, India, V6) MDR, G-block (OligoCF-5/20) 2%
[15] = Klebsiella pneumoniae (IR25, India, V6) MDR, G-block (OligoCF-5/20) 6%
[16] = Klebsiella pneumoniae (IR25, India, V6) MDR, G-block (OligoCF-5/20) 10%
[17] = Klebsiella pneumoniae (K3, India, V8) MDR, G-block (OligoCF-5/20) 0%
[18] = Klebsiella pneumoniae (K3, India, V8) MDR, G-block (OligoCF-5/20) 2%
[19] = Klebsiella pneumoniae (K3, India, V8) MDR, G-block (OligoCF-5/20) 6%
[20] = Klebsiella pneumoniae (K3, India, V8) MDR, G-block (OligoCF-5/20) 10%
[21] = Pseudomonas aeruginosa, Table 8, V2, G-block (OligoCF-5/20) 0%
[22] = Pseudomonas aeruginosa, Table 8, V2, G-block (OligoCF-5/20) 2%
[23] = Table 8, G-block (OligoCF-5/20) 0%
[24] = Table 8, G-block (OligoCF-5/20) 2%
[25] = Table 8, G-block (OligoCF-5/20) 6%
[26] = Table 8, G-block (OligoCF-5/20) 10%
[27] = Table 9, G-block (OligoCF-5/20) 0%
[28] = Table 9, G-block (OligoCF-5/20) 2%
[29] = Table 9, G-block (OligoCF-5/20) 6%
[30] = Table 9, G-block (OligoCF-5/20) 10%

SMILES: C[C@@H](O)[C@H]1C(=O)N2C(C(=O)O)=C(SCCN=CN)C[C@H]12 [Imipenem]
- MIC [1, 9]: < 2 µg/mL
- MIC [1, 10]: < 2 µg/mL
- MIC [1, 11]: < 2 µg/mL
- MIC [1, 12]: < 2 µg/mL
- MIC [1, 13]: < 2 µg/mL
- MIC [1, 14]: 2 µg/mL (≈ 6.68 µM)
- MIC [1, 15]: 2 µg/mL (≈ 6.68 µM)
- MIC [1, 16]: 2 µg/mL (≈ 6.68 µM)
- MIC [1, 17]: 8 µg/mL (≈ 26.7 µM)
- MIC [1, 18]: 16 µg/mL (≈ 53.4 µM)
- MIC [1, 19]: 16 µg/mL (≈ 53.4 µM)
- MIC [1, 20]: 8 µg/mL (≈ 26.7 µM)
- MIC (MDR Providencia stuartii; G-block (OligoCF-5/20) 0%): 16 µg/mL (≈ 53.4 µM)
- MIC (MDR Providencia stuartii; G-block (OligoCF-5/20) 2%): 16 µg/mL (≈ 53.4 µM)
- MIC (MDR Providencia stuartii; G-block (OligoCF-5/20) 6%): 16 µg/mL (≈ 53.4 µM)
- MIC (MDR Providencia stuartii; G-block (OligoCF-5/20) 10%): 8 µg/mL (≈ 26.7 µM)
- MIC ([2]; G-block (OligoCF-5/20) 0%): < 2 µg/mL
- MIC ([2]; G-block (OligoCF-5/20) 2%): < 2 µg/mL
- MIC ([2]; G-block (OligoCF-5/20) 6%): < 2 µg/mL
- MIC ([2]; G-block (OligoCF-5/20) 10%): < 2 µg/mL
- MIC ([3]; G-block (OligoCF-5/20) 0%): 0.0625 µg/mL (≈ 0.209 µM)
- MIC ([3]; G-block (OligoCF-5/20) 2%): 0.0625 µg/mL (≈ 0.209 µM)
- MIC ([3]; G-block (OligoCF-5/20) 6%): 0.0312 µg/mL (≈ 0.104 µM)
- MIC ([3]; G-block (OligoCF-5/20) 10%): < 0.0312 µg/mL
- MIC (Streptococcus oralis; G-block (OligoCF-5/20) 0%): < 0.0312 µg/mL
- MIC (Streptococcus oralis; G-block (OligoCF-5/20) 2%): 16 µg/mL (≈ 53.4 µM)
- MIC (Streptococcus oralis; G-block (OligoCF-5/20) 6%): 1 µg/mL (≈ 3.34 µM)
- MIC (Streptococcus oralis; G-block (OligoCF-5/20) 10%): < 0.0312 µg/mL
- MIC ([4]; Pseudomonas aeruginosa): 128 µg/mL (≈ 428 µM)
- MIC [4, 21]: 256 µg/mL (≈ 855 µM)
- MIC [4, 22]: 256 µg/mL (≈ 855 µM)
- MIC ([4]; Table 8, V2, G-block (OligoCF-5/20) 10%): 128 µg/mL (≈ 428 µM)
- MIC [5, 23]: 128 µg/mL (≈ 428 µM)
- MIC [5, 24]: 128 µg/mL (≈ 428 µM)
- MIC [5, 25]: 64 µg/mL (≈ 214 µM)
- MIC [5, 26]: 16 µg/mL (≈ 53.4 µM)
- MIC [6, 27]: 2 µg/mL (≈ 6.68 µM)
- MIC [6, 28]: 2 µg/mL (≈ 6.68 µM)
- MIC [6, 29]: 2 µg/mL (≈ 6.68 µM)
- MIC [6, 30]: < 2 µg/mL
- MIC [7, 27]: 2 µg/mL (≈ 6.68 µM)
- MIC [7, 28]: < 2 µg/mL
- MIC [7, 29]: 2 µg/mL (≈ 6.68 µM)
- MIC [7, 30]: < 2 µg/mL
- MIC [8, 27]: < 2 µg/mL
- MIC [8, 28]: < 2 µg/mL
- MIC [8, 29]: < 2 µg/mL
- MIC [8, 30]: < 2 µg/mL

- MIC [1, 9]: 256 µg/mL (≈ 306 µM)
- MIC [1, 10]: 512 µg/mL (≈ 612 µM)
- MIC [1, 11]: 512 µg/mL (≈ 612 µM)
- MIC [1, 12]: 512 µg/mL (≈ 612 µM)
- MIC [1, 13]: 1020 µg/mL (≈ 1220 µM)
- MIC [1, 14]: > 1020 µg/mL
- MIC [1, 15]: 1020 µg/mL (≈ 1220 µM)
- MIC [1, 16]: > 1020 µg/mL
- MIC [1, 17]: 512 µg/mL (≈ 612 µM)
- MIC [1, 18]: 256 µg/mL (≈ 306 µM)
- MIC [1, 19]: > 1020 µg/mL
- MIC [1, 20]: > 1020 µg/mL
- MIC (MDR Providencia stuartii; G-block (OligoCF-5/20) 0%): 64 µg/mL (≈ 76.5 µM)
- MIC (MDR Providencia stuartii; G-block (OligoCF-5/20) 2%): 32 µg/mL (≈ 38.2 µM)
- MIC (MDR Providencia stuartii; G-block (OligoCF-5/20) 6%): 32 µg/mL (≈ 38.2 µM)
- MIC (MDR Providencia stuartii; G-block (OligoCF-5/20) 10%): 32 µg/mL (≈ 38.2 µM)
- MIC ([2]; G-block (OligoCF-5/20) 0%): 512 µg/mL (≈ 612 µM)
- MIC ([2]; G-block (OligoCF-5/20) 2%): 128 µg/mL (≈ 153 µM)
- MIC ([2]; G-block (OligoCF-5/20) 6%): 256 µg/mL (≈ 306 µM)
- MIC ([2]; G-block (OligoCF-5/20) 10%): 512 µg/mL (≈ 612 µM)
- MIC ([3]; G-block (OligoCF-5/20) 0%): > 1020 µg/mL
- MIC ([3]; G-block (OligoCF-5/20) 2%): 1020 µg/mL (≈ 1220 µM)
- MIC ([3]; G-block (OligoCF-5/20) 6%): 512 µg/mL (≈ 612 µM)
- MIC ([3]; G-block (OligoCF-5/20) 10%): 256 µg/mL (≈ 306 µM)
- MIC (Streptococcus oralis; G-block (OligoCF-5/20) 0%): 8 µg/mL (≈ 9.56 µM)
- MIC (Streptococcus oralis; G-block (OligoCF-5/20) 2%): 8 µg/mL (≈ 9.56 µM)
- MIC (Streptococcus oralis; G-block (OligoCF-5/20) 6%): 0.0312 µg/mL (≈ 0.0373 µM)
- MIC (Streptococcus oralis; G-block (OligoCF-5/20) 10%): 16 µg/mL (≈ 19.1 µM)
- MIC [4, 21]: > 512 µg/mL
- MIC [4, 22]: > 512 µg/mL
- MIC ([4]; Pseudomonas aeruginosa, Table 8, V2, G-block (OligoCF-5/20) 6%): > 512 µg/mL
- MIC ([4]; Pseudomonas aeruginosa, Table 8, V2, G-block (OligoCF-5/20) 10%): > 512 µg/mL
- MIC [5, 23]: > 512 µg/mL
- MIC [5, 24]: > 512 µg/mL
- MIC [5, 25]: 512 µg/mL (≈ 612 µM)
- MIC [5, 26]: 256 µg/mL (≈ 306 µM)
- MIC [6, 27]: 4 µg/mL (≈ 4.78 µM)
- MIC [6, 28]: < 2 µg/mL
- MIC [6, 29]: < 2 µg/mL
- MIC [6, 30]: < 2 µg/mL
- MIC [7, 27]: 8 µg/mL (≈ 9.56 µM)
- MIC [7, 28]: 4 µg/mL (≈ 4.78 µM)
- MIC [7, 29]: 4 µg/mL (≈ 4.78 µM)
- MIC [7, 30]: 2 µg/mL (≈ 2.39 µM)
- MIC [8, 27]: 4 µg/mL (≈ 4.78 µM)
- MIC [8, 28]: < 1 µg/mL
- MIC [8, 29]: < 1 µg/mL
- MIC [8, 30]: < 1 µg/mL
SMILES: CC[C@H]1OC(=O)[C@H](C)[C@@H](O[C@H]2C[C@@](C)(OC)[C@@H](O)[C@H](C)O2)[C@H](C)[C@@H](O[C@@H]2O[C@H](C)C[C@H](N(C)C)[C@H]2O)[C@](C)(O)C[C@@H](C)/C(=N\OCOCCOC)[C@H](C)[C@@H](O)[C@]1(C)O [Roxithromycin]
